Structures are written as SMILES.

Experiment [1] relates to U2OS cells. Description: Cell count in U2OS Cell Painting images. Format: cell-based, human. Particulars: for Avg. Cell Count z-score: U2OS Cell Painting. An excerpt:
(§1) Of these, analysis of the 220 constructs that were most closely representative of the annotated full-length transcripts was prioritized. […] Not all genes are likely to impact cellular morphology given the limitation of the experiment; using a single cell line at a single time point under a single set of conditions and stained with six fluorescent labels.
(§2) This standardization was done plate wise, based on the mean and standard deviation of the controls at profile level for the compound dataset. […] The signatures were then obtained by averaging the replicate profiles feature-wise. Pearson correlation was used on the aligned signatures of a gene and compound to score their connection.

Experiment [2] relates to HEK293, HepG2, A549 cells. Particulars: per PubChem, cited from earlier work.
The test system of experiment [3] is TRAF2 overexpression in U2OS cells. Description: Cell Painting morphological profile matching to TRAF2 overexpression. Particulars: for Corr. to TRAF2: Pearson correlation of Cell Painting signatures, U2OS cells. The experiment is classed as cell-based, human.
Excerpt: as §1, §2

In experiment [4] the test system is KP230 cells. Description: Percent viability of KP230 cells. Format: cell-based, mouse. As to conditions: 10 μM daily for 72 hours. From the text:
YAP1 cell culture and treatments: Eisinger lab: Murine KP230 cells, a Yap1-dependent cancer cell line, were derived from a tumor from the KP mouse model (Kras^G12/D; Trp53^f/fl), as described in Eisinger-Mathason, T. S. K. et al., Proc. Natl. Acad. Sci. U.S.A 112 (2015): E3402-11, which is hereby incorporated by reference in its entirety. STS-109 UPS cells were derived from a human UPS tumor and validated by Rebecca Gladdy, MD (Sinai Health System, Toronto, Ontario, Canada). TC32 cells were a gift from Patrick Grohar, MD, PhD (Children's Hospital of Philadelphia). HT-1080, HCT-116, and HEK293T cells were purchased from ATCC. KP230, HT-1080, and HEK-293T cells were grown in DMEM with 10% FBS, 1% L-glutamine, and 1% penicillin/streptomycin (P/S). STS-109 cells were cultured in DMEM with 20% FBS, 1% L-glutamine, and 1% P/S. TC32 cells were grown in RPMI with 10% FBS, 1% L-glutamine, and 1% P/S. HCT-116 cells were cultured in McCoy's 5A medium with 10% FBS and 1% P/S. All cells were confirmed to be negative for mycoplasma contamination and were maintained in an incubator at 37C with 5% CO2. […]
(§3) NB4A treatment: Cells were treated with 10 μM of each inhibitor or an equivalent volume of DMSO every 24 hours for 3-8 days, and counted with a hemocytometer with trypan blue exclusion daily (KP230, HT-1080, TC32, HCT-116), or every 2 days (STS-109).

For experiment [5], the system named is YAP1 overexpression in U2OS cells. Description: Cell Painting morphological profile matching to YAP1/TAZ overexpression signature. The experiment is classed as cell-based, human. Particulars: for Corr. to YAP1 cluster: Pearson correlation of Cell Painting signatures, U2OS cells.
Excerpt: as §1
FIG. 2 provides an example characterization of matching the morphological signature of a gene query to the signature(s) of compounds in a library. Connections which show both positive and negative large correlations are considered as matches.
as §2

In experiment [6] the test system is KP230 cells. Description: Proliferation assay, KP230 cells. Format: cell-based, mouse. As to conditions: 10 μM daily for 72 hours.
Excerpt: YAP1 cell culture and treatments: Eisinger lab: Murine KP230 cells, a Yap1-dependent cancer cell line, were derived from a tumor from the KP mouse model (Kras^G12/D; Trp53^f/fl), as described in Eisinger-Mathason, T. S. K. et al., Proc. Natl. Acad. Sci. U.S.A 112 (2015): E3402-11, which is hereby incorporated by reference in its entirety. STS-109 UPS cells were derived from a human UPS tumor and validated by Rebecca Gladdy, MD (Sinai Health System, Toronto, Ontario, Canada). TC32 cells were a gift from Patrick Grohar, MD, PhD (Children's Hospital of Philadelphia). HT-1080, HCT-116, and HEK293T cells were purchased from ATCC. KP230, HT-1080, and HEK-293T cells were grown in DMEM with 10% FBS, 1% L-glutamine, and 1% penicillin/streptomycin (P/S). STS-109 cells were cultured in DMEM with 20% FBS, 1% L-glutamine, and 1% P/S. TC32 cells were grown in RPMI with 10% FBS, 1% L-glutamine, and 1% P/S. HCT-116 cells were cultured in McCoy's 5A medium with 10% FBS and 1% P/S. All cells were confirmed to be negative for mycoplasma contamination and were maintained in an incubator at 37C with 5% CO2. For experimental purposes, cells were cultured for up to 20 passages before being discarded, and were grown to approximately 50% confluence to circumvent the effects of high cell density on Yap1 expression and activity. All cell lines in the Eisinger laboratory were treated with 10 μM of each inhibitor or an equivalent volume of DMSO every 24 hours for 3 days, except for STS-109 cells, which were treated daily for 8 days.
as §3

For experiment [7], the system named is H9 human pluripotent stem cells. Description: qPCR of YAP1, CTGF and CYR61 in H9 hPSCs. The experiment is classed as cell-based. As to conditions: 24 hrs. On the procedure: H9 hPSCs (WiCell) were maintained on vitronectin (Thermo Fisher)-coated plates in Essential 8 (E8) medium. The cells were routinely passaged using 0.5 mM EDTA and treated with 5 μM Y-27632 dihydrochloride (Tocris) on the first day. For testing the effects of the small molecules, H9 hPSCs were seeded at 50K cells/cm^2 on vitronectin-coated plates in E8 medium supplemented with 5 μM Y-27632 dihydrochloride (day 0). On day 1, the medium was switched to E8 medium. On day 2, the medium was switched to E8 medium supplemented with the small molecules. Following overnight incubation, the cells were collected for subsequent analysis on day 3.
The RNA was extracted using TRIzol (Life Technologies) and Direct-zol™ RNA MiniPrep kit (Zymo Research) as per manufacturer instructions. The RNA was reverse transcribed using iScript cDNA synthesis kit (Bio-Rad). The qPCR was performed on CFX Connect (Bio-Rad) using iTaq Universal SYBR Green Supermix (Bio-Rad). GAPDH was used as a reference gene for normalization. The relative gene expression levels were determined using the ddCt method.

The target in experiment [8] is PAX8 (Homo sapiens, UniProt Q06710). As to conditions: per PubChem; cited from earlier work.
Chain of PAX8 (Q06710 whole entry, species assumed): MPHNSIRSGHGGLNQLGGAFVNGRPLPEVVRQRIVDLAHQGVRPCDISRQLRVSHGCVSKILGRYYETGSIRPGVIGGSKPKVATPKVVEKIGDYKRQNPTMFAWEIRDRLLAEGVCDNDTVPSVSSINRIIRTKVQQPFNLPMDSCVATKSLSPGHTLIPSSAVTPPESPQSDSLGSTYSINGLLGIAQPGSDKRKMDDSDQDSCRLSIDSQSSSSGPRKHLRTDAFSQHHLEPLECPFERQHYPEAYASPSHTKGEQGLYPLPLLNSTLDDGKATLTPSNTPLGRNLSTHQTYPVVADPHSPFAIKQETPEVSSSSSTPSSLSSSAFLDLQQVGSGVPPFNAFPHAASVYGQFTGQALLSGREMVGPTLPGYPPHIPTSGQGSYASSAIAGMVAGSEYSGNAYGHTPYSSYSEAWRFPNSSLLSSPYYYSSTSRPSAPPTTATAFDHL
For experiment [9], the system named is murine periosteal cells. Description: qPCR of Yap1 and Cyr61 in murine periosteal cells. Format: cell-based, mouse. Particulars: 5 μM. On the procedure: Murine periosteal cells were isolated from a transgenic mouse model (CMV-Cre; R26R-rtTA^fl; tetO-YAP^S127A) in which YAP1 can be activated in a doxycycline inducible manner (Camargo 2011). This mouse model expresses a mutant form of YAP1 (YAP^S127A) that escapes degradation. Cells were cultured in a-MEM with 15% Fetal Bovine serum (S11550, R&D Systems), 1% GlutaMAX-I (Gibco, 35050-061) and 1% Penicillin/Streptomycin (Gibco, 15140-122).
To induce YAP^S127A, […] doxycycline was added to the cell culture medium for 48 hours. This was used as a positive control to compare YAP1 mRNA expression. Cells were also treated with BRD-K34692511-001-01-9 at 5 μM. mRNA was isolated from cells (n=3/group/time point) at 1, 4 or 48 hours after treatment using Qiagen RNeasy Mini kit (Qiagen, 74106). cDNA was prepared as per the manufacturer's protocol using the High-Capacity Reverse Transcription kit (Thermofisher scientific, 4368814). qPCR analysis was performed using the QuantStudio 6 Pro Real-Time PCR System.
In general terms: Quantitative PCR measures a nucleic acid by following its amplification.

Turning to `CO[C@@H]1CN(C)C(=O)c2ccc(NC(=O)c3ccc(-c4ccccc4)cc3)cc2OC[C@H](C)NC[C@@H]1C` [BRD-K28862419, N-[(4S,7S,8S)-8-methoxy-4,7,10-trimethyl-11-oxo-2-oxa-5,10-diazabicyclo[10.4.0]hexadeca-1(12),13,15-trien-15-yl]-4-phenylbenzamide], in [1], the “proliferation in the U2OS Cell Painting images” value is given as −2.0 st dev and the “Avg. Cell Count z-score” value is listed as −2.044. For the same molecule, the AC50 in experiment [2] (read-out: AC50, inhibition of cell proliferation) is 5 to 18 µM. Further, in [3], the “Cell Painting profile correlation with TRAF2 overexpression” value stood at 0.41 and the “Corr. to TRAF2” value turned out to be 0.4068. The cell viability entry in [4] is recorded as “modestly yet significantly reduced”. In [5], the “Cell Painting profile correlation with YAP1 overexpression” value is −0.43 and the “Corr. to YAP1 cluster” value is reported as −0.4317. Further, the proliferation entry in [6] is “inhibited KP230 cell proliferation”. In experiment [7], the “mRNA levels of hippo pathway members (YAP1, CTGF, CYR61)” value is reported as “did not dramatically impact”. Moreover, the PAX8 inhibition entry in experiment [8] is “inhibits PAX8”.

Turning to `CO[C@@H]1CN(C)C(=O)c2cc(NC(=O)Nc3ccc(C(F)(F)F)cc3)ccc2OC[C@@H](C)NC[C@@H]1C` [BRD-K34692511, 1-[(4R,7S,8S)-8-methoxy-4,7,10-trimethyl-11-oxo-2-oxa-5,10-diazabicyclo[10.4.0]hexadeca-1(12),13,15-trien-14-yl]-3-[4-(trifluoromethyl)phenyl]urea], in experiment [1], the “proliferation in the U2OS Cell Painting images” value was “had none of these impacts” and the “Avg. Cell Count z-score” value is reported as 0.478. For the same molecule, in [2], the “AC50, inhibition of cell proliferation” value is listed as “had none of these impacts”. Further, in experiment [3], the “Cell Painting profile correlation with TRAF2 overexpression” value is listed as 0.29 and the “Corr. to TRAF2” value is given as 0.2869. In experiment [5], the “Cell Painting profile correlation with YAP1 overexpression” value is −0.45 and the “Corr. to YAP1 cluster” value was −0.4398. The “mRNA levels of Yap1 and Cyr61” value in experiment [9] (1 and 4 hours) was “not at 1 and 4 hours”. Also, the “mRNA levels of Yap1 and Cyr61” value in experiment [9] (48 hours) is “substantially upregulated”. Moreover, the proliferation result in experiment [6] is recorded as “inhibited KP230 cell proliferation”. For the same molecule, the “mRNA levels of hippo pathway members (YAP1, CTGF, CYR61)” value in experiment [7] was “did not dramatically impact”. Also, the PAX8 inhibition entry in experiment [8] is reported as “had none of these impacts”.

The values above are taken from US20230255970A1, “COMPOSITIONS AND METHODS FOR TREATING PROLIFERATIVE DISEASES” (The Broad Institute, Inc., priority 2020, published 2023).
